According to PubChem BioAssay (NCI):
Where “and” joins values, the source holds several entries; their conditions need not be identical. Equal entries are not always repeated.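 Values below derive from 48-hour exposures of cells grown in 96-well plates, with endpoints linearly interpolated between the two concentrations bracketing the appropriate inhibition level. The concentration for 50% growth inhibition is given as GI50. TGI: total growth inhibition.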

How the values were obtained:
Assay in all cases: NCI tumour cell line growth inhibition, 48 h
[1] = test system: DMS 114 small cell lung
[2] = test system: A549 NSCLC
[3] = test system: UO-31 renal
[4] = test system: CCRF-CEM leukemia
[5] = test system: HOP-62 NSCLC
[6] = test system: KM12 colon
[7] = test system: SK-MEL-28 melanoma
[8] = test system: SF-268 CNS
[9] = test system: NCI-H226 lung
[10] = test system: XF 498 CNS

| Structure (SMILES) | TGI [1] [µM] | TGI [2] [µM] | TGI [3] [µM] | TGI [4] [µM] | TGI [5] [µM] | TGI [6] | TGI [7] | TGI [8] | TGI [9] | TGI [10] | GI50 [2] [µM] | GI50 [3] [µM] | GI50 [9] [µM] | GI50 [4] [µM] | GI50 [5] [µM] | GI50 [6] [µM] | GI50 [7] | GI50 [8] [µM] | GI50 [1] [µM] | GI50 [10] [µM] |
| --- | --- | --- | --- | --- | --- | --- | --- | --- | --- | --- | --- | --- | --- | --- | --- | --- | --- | --- | --- | --- |
| Cc1nc(C(N)=O)c(N)n1CCN1CCN(C(=O)CCCCCCCCCCNC2N=CNc3nc[nH]c32)CC1 (stereo not drawn) | > 100 | > 100 | > 100 | 81.9 | > 100 | > 100 µM | 79.1 µM | > 100 µM | – | – | – | – | – | – | – | – | – | – | – | – |
| Cc1cc2c(C)nn(Cc3ccccc3)c2c(C(=O)O)c1C | – | > 100 | > 100 | > 100 | > 100 | – | > 100 µM | > 100 µM | > 100 µM | > 100 µM | – | – | – | – | – | – | – | – | – | – |
| C[N+](C)(C)CCC(=O)CC[N+](C)(C)C | 44.2 | > 100 | > 100 | 7.42 | > 100 | 42.2 µM | 50.1 µM | 42.9 µM | – | 46.6 µM | – | – | – | – | – | – | – | – | – | – |
| O=C1C[C@H]2CCCN2[C@@H](c2ccccc2)C1 | – | > 100 | > 100 | > 100 | > 100 | > 100 µM | > 100 µM | > 100 µM | > 100 µM | > 100 µM | – | – | – | – | – | – | – | – | – | – |
| N#CC(N)=Nc1ccccc1 | 31.1 | > 100 | > 100 | > 100 | > 100 | > 100 µM | > 100 µM | > 100 µM | > 100 µM | – | – | – | – | – | – | – | – | – | – | – |
| Nc1ncnc2c1ncn2C1OC(CSCC(F)(F)F)C(O)C1O (stereo not drawn) | – | > 100 | > 100 | – | > 100 | > 100 µM | > 100 µM | > 100 µM | > 100 µM | > 100 µM | – | – | – | – | – | – | – | – | – | – |
| O=C1C2C3C=C4c5ccccc5N(c5ccccc5)C4(C2C(=O)N1c1ccccc1)C1C(=O)N(c2ccccc2)C(=O)C31 (stereo not drawn) | > 100 | > 100 | > 100 | > 100 | > 100 | > 100 µM | > 100 µM | > 100 µM | – | > 100 µM | – | – | – | – | – | – | – | – | – | – |
| COC(=O)c1sc(C(=O)OC)c2c1CS(=O)C2 | > 100 | > 100 | > 100 | > 100 | – | > 100 µM | > 100 µM | > 100 µM | > 100 µM | > 100 µM | – | – | – | – | – | – | – | – | – | – |
| COc1ccc2nccc(C3=CCC4CCN(C(=O)c5ccccc5)C3C4)c2c1 (stereo not drawn) | > 100 | > 100 | > 100 | > 100 | > 100 | > 100 µM | > 100 µM | > 100 µM | – | > 100 µM | – | – | – | – | – | – | – | – | – | – |
| O=C(NCCCOC(=O)CCCCCCCCC(=O)OCCCNC(=O)NC(=O)c1c[nH]c(=O)[nH]c1=O)NC(=O)c1c[nH]c(=O)[nH]c1=O | – | > 100 | – | > 100 | > 100 | > 100 µM | > 100 µM | > 100 µM | – | > 100 µM | – | – | – | – | – | – | – | – | – | – |
| CN1N=CSC12C(=O)N(c1ccccc1)C(=O)N2c1ccccc1 (stereo not drawn) | > 100 | > 100 | > 100 | > 100 | > 100 | > 100 µM | > 100 µM | > 100 µM | – | > 100 µM | – | – | – | – | – | – | – | – | – | – |
| C/C=C/C(C#N)O[Si](C)(C)C (stereo not drawn) | > 100 | > 100 | > 100 | – | > 100 | > 100 µM | > 100 µM | > 100 µM | > 100 µM | > 100 µM | – | – | – | – | – | – | – | – | – | – |
| CCOC(=O)NC(=O)c1cn(CCN2CCN(C(=O)NCCCCCCNC(=O)N3CCN(CCn4cc(C(=O)NC(=O)OCC)c(=O)[nH]c4=O)CC3)CC2)c(=O)[nH]c1=O | > 100 | > 100 | > 100 | – | > 100 | > 100 µM | > 100 µM | > 100 µM | – | > 100 µM | – | – | – | – | – | – | – | – | – | – |
| Cn1ccnc1CCc1c(Cl)cccc1Cl | > 100 | > 100 | > 100 | > 100 | > 100 | > 100 µM | > 100 µM | > 100 µM | > 100 µM | – | – | – | – | – | – | – | – | – | – | – |
| CN(C)c1cc2ccccc2oc1=O | – | > 100 | > 100 | > 100 | > 100 | > 100 µM | > 100 µM | > 100 µM | > 100 µM | – | – | – | – | – | – | – | – | – | – | – |
| CC(C)=CCN1c2ccccc2NC(=O)CC1C (stereo not drawn) | – | > 100 | > 100 | > 100 | > 100 | > 100 µM | > 100 µM | > 100 µM | > 100 µM | – | – | – | – | – | – | – | – | – | – | – |
| O=S(=O)(Nc1ccc(Br)cc1)c1ccc(-c2cnc(C3CC3)o2)cc1 | – | 22.5 | 15.7 | 16.2 | 16.6 | 17.5 µM | 22.9 µM | 22.4 µM | 25 µM | – | 3.85 | 2.41 | 6.26 | 2.14 | 2.37 | 1.13 | 10 µM | 5.05 | – | – |
| CCN1C(=O)N(CC)C2C1NN=c1s/c(=C\c3ccc(Cl)cc3Cl)c(=O)n12 (stereo not drawn) | – | > 55.5 | 60.4 | > 100 | > 72.8 | > 32.6 µM | > 100 µM | > 67.5 µM | – | – | 0.0369 | 0.167 | 0.129 | 0.0361 | 0.0469 | 0.0274 | 2.48 µM | 0.0485 | – | – |
| COc1ccc2c(c1)C(=O)/C(=C/c1cccc(OCC(=O)c3ccccc3)c1)CC2 | – | > 100 | > 100 | 7.67 | > 100 | > 100 µM | > 100 µM | > 100 µM | > 100 µM | – | 36.6 | 29.2 | 28.6 | 2.48 | 42.5 | 6.92 | 32.8 µM | 45.2 | – | – |
| COc1ccc(-c2noc(C(=O)O)c2-c2cc(OC)c(OC)c(OC)c2)cc1 | – | > 100 | > 100 | > 100 | > 100 | > 100 µM | > 100 µM | > 100 µM | > 100 µM | – | 4.75 | 5.45 | > 100 | 3.52 | 3.82 | 0.595 | 37.3 µM | 7.63 | – | – |
| Cc1ccc(S(=O)(=O)SC/C=C\CSS(=O)(=O)c2ccc(C)cc2)cc1 | – | > 100 | > 100 | 37.6 | > 100 | > 100 µM and 30.4 µM | > 78.8 µM and 35.5 µM | > 73.2 µM and 74.4 µM | 71.5 µM and 55.2 µM | > 100 µM and 43.9 µM | – | – | – | – | – | – | 39.7 µM and 18.8 µM | – | – | – |
| CCc1c(C#N)c(=O)[nH]c(=O)n1CCN1CCN(C(=O)NCCCCCCNC(=O)N2CCN(CCn3c(CC)c(C#N)c(=O)[nH]c3=O)CC2)CC1 | > 100 | > 100 | – | > 100 | > 100 | – | – | – | – | > 100 µM | – | – | – | – | – | – | – | – | – | – |
| C[C@@H](NC(C#N)c1ccco1)c1ccccc1 (stereo partly drawn) | – | > 100 | > 100 | > 100 | > 100 | > 100 µM | > 100 µM | > 100 µM | > 100 µM | – | – | – | – | – | – | – | – | – | – | – |
| O=[N+]([O-])c1ccccc1N=Nc1c(O)[nH]c2cccc(C(F)(F)F)c12 | – | > 100 | > 100 | > 100 | 82.8 | > 100 µM | > 100 µM | > 100 µM | > 100 µM | – | – | – | – | – | – | – | – | – | – | – |
| IC[P+]1(c2ccccc2)CCCC1 | 36.3 | > 100 | > 100 | > 100 | > 100 | > 100 µM | > 100 µM | – | 89 µM | – | – | – | – | – | – | – | – | – | – | – |
| Cc1c2cnccc2c(C)c2c1c1cc(C#N)ccc1n2C | – | 0.895 | 0.869 | 2.83 | 1.42 | 1.98 µM | 0.737 µM | 1.59 µM | 0.379 µM | – | 0.1 | 0.137 | 0.112 | 0.249 | 0.115 | 0.243 | 0.285 µM | 0.209 | – | – |
| O=C(c1ccc2ccccc2c1)c1c(C(F)(F)F)n([O-])c2ccc(C(F)(F)F)cc2[n+]1=O | – | 3.48 | 0.874 | 0.547 | 3.58 | 2.39 µM | 2.86 µM | 2.37 µM | 3.35 µM | – | 1.68 | 0.434 | 1.06 | 0.181 | 1.95 | 0.961 | 1.48 µM | 0.783 | – | – |
| CCSC1=NC2C(N(CC)C(=O)N2CC)N1/N=C/C=C/c1ccccc1[N+](=O)[O-] (stereo not drawn) | – | > 100 | > 100 | > 100 | > 100 | > 37.7 µM | > 100 µM | > 100 µM | > 100 µM | – | 0.307 | 0.664 | 0.381 | 0.331 | 0.313 | 0.0887 | 5.83 µM | 0.486 | – | – |
| CC[O-].CC[O-].O=C([CH-]C(=O)c1ccccc1)CCCCCCCCC(=O)[CH-]C(=O)c1ccccc1.[Ti+4] | > 100 | > 100 | – | > 100 | > 100 | 3.25 µM | > 100 µM | > 100 µM | – | > 100 µM | > 100 | – | – | 41.8 | > 100 | 0.032 | > 100 µM | > 100 | 80.6 | > 100 |
| O=C1/C(=C/c2ccc([N+](=O)[O-])cc2)CN(C(=O)CCN2CCC(=NO)CC2)C/C1=C\c1ccc([N+](=O)[O-])cc1 | – | 12.4 | 2.55 | 9.93 | 6.97 | 1.18 µM | 4.72 µM | 6.01 µM | 5.41 µM | – | 2.85 | 1.14 | 2.03 | 0.534 | 1.91 | 0.448 | 1.93 µM | 1.07 | – | – |
